Source: patent US12209091B2, “Isoindolinone derivatives as selective allosteric inhibitors of Egfr mutant cancers” (Hoffmann-La Roche Inc., priority 2018, dated 2025)

Molecular target: T1, Phospho EGFR TMLR (H1975 cells) (Homo sapiens, UniProt P00533, L858R/T790M)
T1 construct: H1975 cell line (CRL-5908; Lot BA70803) was obtained from American Type Culture Collection; host or cells: H1975
Test: HTRF Phospho EGFR TMLR assay (cellular), H1975
Type: cell-based
Conditions: H1975 cell line, 16 hours compound incubation, Phospho-EGFR HTRF readout
Method: HTRF Phospho EGFR TMLR Assay (Cellular)
H1975 cell line (CRL-5908; Lot BA70803) was obtained from American Type Culture Collection (Manassas, VA, USA). Cells were maintained at 37° C., 5% CO2 in complete Media RPMI 1640 without phenol red containing 0.3 mg/ml glutamine, 100 IU/ml penicillin, and […] streptomycin (Gibco, 15140-122) supplemented with 10% fetal bovine serum (FBS, Gibco, 10091-148). Compounds were diluted into starving medium RPMI 1640 Media (Gibco, 11835-030) without phenol red containing 0.3 mg/ml glutamine, 100 IU/ml penicillin, and […] streptomycin (Gibco).
Cells were cultured for 24 h in a 384-well plate (Greiner Bio-One, Nr. 784-080; 5000 cells/well) using 8 μl of complete medium/well. Then 4 μl/well of the 3× compound solution, containing a factor 3 dilution series of the compound or DMSO in starving medium, were added to the cells (final DMSO 0.33%). After 16 hours at 37° C., 5% CO2, 95% rel. humidity cells were lysed by adding to the compound mix 4 μl/well of the supplemented lysis buffer (Cis-bio, Phospho-EGFR HTRF kit, 64EG1PEH), followed by incubation for 30 min at room temperature with shaking (400 rpm). Then 4 μl of a mixture of anti-Phospho-EGFR Cryptate and of anti-Phospho-EGFR-d2 antibody solutions prepared in the detection buffer was added. The plates were then incubated for 4 h at room temperature before reading the fluorescence emission at 620 and 665 nm using an Envision reader (Perkin Elmer).

T1 sequence (P00533 25-1210 T790M/L858R): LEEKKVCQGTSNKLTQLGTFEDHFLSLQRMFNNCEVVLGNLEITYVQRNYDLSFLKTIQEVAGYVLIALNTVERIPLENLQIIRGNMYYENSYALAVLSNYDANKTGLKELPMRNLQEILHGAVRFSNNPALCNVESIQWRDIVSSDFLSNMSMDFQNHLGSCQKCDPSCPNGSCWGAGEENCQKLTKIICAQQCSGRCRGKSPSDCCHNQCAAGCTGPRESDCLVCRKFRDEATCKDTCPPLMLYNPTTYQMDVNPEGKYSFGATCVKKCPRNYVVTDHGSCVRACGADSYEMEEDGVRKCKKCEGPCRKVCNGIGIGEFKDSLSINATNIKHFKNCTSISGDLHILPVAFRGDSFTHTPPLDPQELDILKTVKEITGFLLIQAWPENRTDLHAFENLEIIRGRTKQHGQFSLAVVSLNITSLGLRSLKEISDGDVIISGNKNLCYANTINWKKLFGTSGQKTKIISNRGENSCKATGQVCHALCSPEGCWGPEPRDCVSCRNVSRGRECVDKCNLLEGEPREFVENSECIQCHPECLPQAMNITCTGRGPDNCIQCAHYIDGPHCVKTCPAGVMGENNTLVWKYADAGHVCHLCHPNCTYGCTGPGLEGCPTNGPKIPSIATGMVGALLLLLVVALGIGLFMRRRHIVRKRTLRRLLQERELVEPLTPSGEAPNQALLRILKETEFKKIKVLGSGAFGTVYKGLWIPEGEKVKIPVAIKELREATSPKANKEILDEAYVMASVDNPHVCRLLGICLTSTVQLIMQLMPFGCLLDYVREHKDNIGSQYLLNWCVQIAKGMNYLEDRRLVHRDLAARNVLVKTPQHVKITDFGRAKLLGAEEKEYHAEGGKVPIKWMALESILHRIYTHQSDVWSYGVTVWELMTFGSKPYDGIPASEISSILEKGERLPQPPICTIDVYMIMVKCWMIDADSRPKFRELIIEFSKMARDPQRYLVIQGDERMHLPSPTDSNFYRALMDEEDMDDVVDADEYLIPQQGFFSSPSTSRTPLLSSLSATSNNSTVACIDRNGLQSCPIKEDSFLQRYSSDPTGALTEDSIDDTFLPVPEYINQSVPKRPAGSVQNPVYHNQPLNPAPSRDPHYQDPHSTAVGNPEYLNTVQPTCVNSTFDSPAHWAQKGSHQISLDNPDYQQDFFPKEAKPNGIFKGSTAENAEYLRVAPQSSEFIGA

Row | IC50 | Compound
1 | 3 nM | CN1CCN(Cc2ccc(C#Cc3cc(F)c4c(c3)C(=O)N(C(C(=O)Nc3nccs3)c3ncn5c3CCC5)C4)cc2)CC1 (racemic) [Example 1, (2RS)-2-(6,7-Dihydro-5H-pyrrolo[1,2-c]imidazol-1-yl)-2-[4-fluoro-6-[2-[4-[(4-methylpiperazin-1-yl)methyl]phenyl]ethynyl]-1-oxo-isoindolin-2-yl]-N-thiazol-2-yl-acetamide]
2 | 1 nM | O=C(Nc1nccs1)C(c1ncn2c1CCC2)N1Cc2c(F)cc(C#Cc3ccc(CN4CCC(O)CC4)cc3)cc2C1=O (racemic) [Example 2, (2RS)-2-(6,7-Dihydro-5H-pyrrolo[1,2-c]imidazol-1-yl)-2-[4-fluoro-6-[2-[4-[(4-hydroxy-1-piperidyl)methyl]phenyl]ethynyl]-1-oxo-isoindolin-2-yl]-N-thiazol-2-yl-acetamide]
3 | 2 nM | O=C(Nc1nccs1)C(c1ncn2c1CCC2)N1Cc2c(F)cc(-c3ccc(N4CCNCC4)cc3)cc2C1=O (racemic) [Example 3, (2RS)-2-(6,7-Dihydro-5H-pyrrolo[1,2-c]imidazol-1-yl)-2-[4-fluoro-1-oxo-6-(4-piperazin-1-ylphenyl)isoindolin-2-yl]-N-thiazol-2-yl-acetamide]
4 | 4 nM | CCN1CCN(c2ccc(-c3cc(F)c4c(c3)C(=O)N(C(C(=O)Nc3nccs3)c3ncn5c3CCC5)C4)cn2)CC1 (racemic) [Example 4, (2RS)-2-(6,7-Dihydro-5H-pyrrolo[1,2-c]imidazol-1-yl)-2-[6-[6-(4-ethylpiperazin-1-yl)-3-pyridyl]-4-fluoro-1-oxo-isoindolin-2-yl]-N-thiazol-2-yl-acetamide]
5 | 3 nM | CCN1CCN(c2ccc(-c3cc(F)c4c(c3)C(=O)N(C(C(=O)Nc3nccs3)c3ncn5c3CCC5)C4)cc2)CC1 (racemic) [Example 5, (2RS)-2-(6,7-Dihydro-5H-pyrrolo[1,2-c]imidazol-1-yl)-2-[6-[4-(4-ethylpiperazin-1-yl)phenyl]-4-fluoro-1-oxo-isoindolin-2-yl]-N-thiazol-2-yl-acetamide]
6 | 4 nM | CCN1CCN(c2ccc(-c3cc(Cl)c4c(c3)C(=O)N(C(C(=O)Nc3nccs3)c3ncn5c3CCC5)C4)cc2)CC1 (racemic) [Example 6, (2RS)-2-[4-Chloro-6-[4-(4-ethylpiperazin-1-yl)phenyl]-1-oxo-isoindolin-2-yl]-2-(6,7-dihydro-5H-pyrrolo[1,2-c]imidazol-1-yl)-N-thiazol-2-yl-acetamide]
7 | 1 nM | O=C(Nc1nccs1)C(c1ncn2c1CCC2)N1Cc2c(F)cc(-c3ccc(N4CCC(O)CC4)cc3)cc2C1=O (racemic) [Example 7, (2RS)-2-(6,7-Dihydro-5H-pyrrolo[1,2-c]imidazol-1-yl)-2-[4-fluoro-6-[4-(4-hydroxy-1-piperidyl)phenyl]-1-oxo-isoindolin-2-yl]-N-thiazol-2-yl-acetamide]
8 | 2 nM | O=C(Nc1nccs1)C(c1ncn2c1CCC2)N1Cc2c(Cl)cc(-c3ccc(N4CCC(O)CC4)nc3)cc2C1=O (racemic) [Example 8, (2RS)-2-[4-Chloro-6-[6-(4-hydroxy-1-piperidyl)-3-pyridyl]-1-oxo-isoindolin-2-yl]-2-(6,7-dihydro-5H-pyrrolo[1,2-c]imidazol-1-yl)-N-thiazol-2-yl-acetamide]
9 | 4 nM | O=C(Nc1nccs1)C(c1ncn2c1CCC2)N1Cc2c(Cl)cc(C#Cc3ccc(CN4CCC(O)CC4)cc3)cc2C1=O (racemic) [Example 9, (2RS)-2-[4-Chloro-6-[2-[4-[(4-hydroxy-1-piperidyl)methyl]phenyl]ethynyl]-1-oxo-isoindolin-2-yl]-2-(6,7-dihydro-5H-pyrrolo[1,2-c]imidazol-1-yl)-N-thiazol-2-yl-acetamide]
10 | 8 nM | O=C(Nc1nccs1)C(c1ccn2c1CCC2)N1Cc2c(F)cc(C#Cc3ccc(CN4CCC(O)CC4)cc3)cc2C1=O (racemic) [Example 10, (2RS)-2-(6,7-Dihydro-5H-pyrrolizin-1-yl)-2-[4-fluoro-6-[2-[4-[(4-hydroxy-1-piperidyl)methyl]phenyl]ethynyl]-1-oxo-isoindolin-2-yl]-N-thiazol-2-yl-acetamide]
11 | 2 nM | O=C(Nc1nccs1)C(c1ncn2c1CCC2)N1Cc2c(Cl)cc(-c3ccc(N4CCC(O)CC4)cc3)cc2C1=O (racemic) [Example 11, (2RS)-2-[4-Chloro-6-[4-(4-hydroxy-1-piperidyl)phenyl]-1-oxo-isoindolin-2-yl]-2-(6,7-dihydro-5H-pyrrolo[1,2-c]imidazol-1-yl)-N-thiazol-2-yl-acetamide]
12 | 2 nM | O=C(Nc1nccs1)C(c1ncn2c1CCC2)N1Cc2c(F)cc(C#Cc3ccc(CO)cc3)cc2C1=O (racemic) [Example 12, (2RS)-2-(6,7-Dihydro-5H-pyrrolo[1,2-c]imidazol-1-yl)-2-[4-fluoro-6-[2-[4-(hydroxymethyl)phenyl]ethynyl]-1-oxo-isoindolin-2-yl]-N-thiazol-2-yl-acetamide]
13 | 3 nM | O=C(Nc1nccs1)C(c1ncn2c1CCC2)N1Cc2c(F)cc(C#Cc3ccc(CN4CCC(O)CC4)cc3)c(Cl)c2C1=O (racemic) [Example 13, (2RS)-2-[7-chloro-4-fluoro-6-[2-[4-[(4-hydroxy-1-piperidyl)methyl]phenyl]ethynyl]-1-oxo-isoindolin-2-yl]-2-(6,7-dihydro-5H-pyrrolo[1,2-c]imidazol-1-yl)-N-thiazol-2-yl-acetamide]
14 | 4 nM | O=C(Nc1nccs1)C(c1ncn2c1CCC2)N1Cc2c(F)cc(C#Cc3ccc(CN4CCCCC4)cc3)cc2C1=O (racemic) [Example 14, (2RS)-2-(6,7-Dihydro-5H-pyrrolo[1,2-c]imidazol-1-yl)-2-[4-fluoro-1-oxo-6-[2-[4-(1-piperidylmethyl)phenyl]ethynyl]isoindolin-2-yl]-N-thiazol-2-yl-acetamide]
